Experimental data reported in ChEMBL document CHEMBL1201862, “PubChem BioAssay data set” (2004).
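Results reflect a 48-hour exposure of cells in 96-well plates to compound at five concentrations. Here, GI50 denotes the concentration required for 50% inhibition of growth.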 Active and inactive are the calls of the source. Cut-off read from the data, not from the text of the source: active = GI50 up to about 1.1 µM and inactive = higher.

Tests used:
Assay in all cases: growth of human tumour cells (NCI), 48 h
786-0 = system: 786-0
A549 = system: A549
DU-145 = system: DU-145
EKVX = system: EKVX
HCT-15 = system: HCT-15
HOP-62 = system: HOP-62
HT-29 = system: HT-29
LOX IMVI = system: LOX IMVI
MDA-MB-231 = system: MDA-MB-231
MOLT-4 = system: MOLT-4
Malme-3M = system: Malme-3M
NCI-H23 = system: NCI-H23
RPMI-8226 = system: RPMI-8226
SF-295 = system: SF-295
SK-MEL-2 = system: SK-MEL-2
SR = system: SR
TK-10 = system: TK-10
U-251 = system: U-251
UACC-62 = system: UACC-62
MDA-MB-435 = system: MDA-MB-435

| Compound | GI50 (786-0) | GI50 (A549) | GI50 (DU-145) | GI50 (EKVX) | GI50 (HCT-15) [µM] | GI50 (HOP-62) | GI50 (HT-29) | GI50 (LOX IMVI) | GI50 (MDA-MB-231) | GI50 (MOLT-4) | GI50 (Malme-3M) | GI50 (NCI-H23) | GI50 (RPMI-8226) | GI50 (SF-295) | GI50 (SK-MEL-2) | GI50 (SR) | GI50 (TK-10) | GI50 (U-251) | GI50 (UACC-62) | GI50 (MDA-MB-435) |
| --- | --- | --- | --- | --- | --- | --- | --- | --- | --- | --- | --- | --- | --- | --- | --- | --- | --- | --- | --- | --- |
| CC(C)c1ccc(/C=C2\CSCC3=C2N=C(S)NC3c2ccc(C(C)C)cc2)cc1 (configuration not stated) | > 100 µM (inactive) | 80.9 µM (inactive) | > 100 µM (inactive) | 61.8 µM (inactive) | 89.5 | > 100 µM (inactive) | 45.1 µM (inactive) | 51.6 µM (inactive) | > 100 µM (inactive) | 29.6 µM (inactive) | 36.1 µM (inactive) | 46.5 µM (inactive) | 67.6 µM (inactive) | 75.9 µM (inactive) | > 100 µM (inactive) | 53.3 µM (inactive) | > 100 µM (inactive) | 85.1 µM (inactive) | 88.3 µM (inactive) | – |
| COc1nc(NC2OCC(O)C(O)C2O)c(NC2OCC(O)C(O)C2O)c(=O)n1C (configuration not stated) | > 100 µM (inactive) | > 100 µM (inactive) | – | > 100 µM (inactive) | > 100 | > 100 µM (inactive) | > 100 µM (inactive) | > 100 µM (inactive) | – | > 100 µM (inactive) | > 100 µM (inactive) | > 100 µM (inactive) | > 100 µM (inactive) | > 100 µM (inactive) | > 100 µM (inactive) | > 100 µM (inactive) | > 100 µM (inactive) | > 100 µM (inactive) | > 100 µM (inactive) | – |
| C=C1CN=C(Nc2ccc(F)cc2F)S1 | > 100 µM (inactive) | > 100 µM (inactive) | > 100 µM (inactive) | > 100 µM (inactive) | > 100 | > 100 µM (inactive) | > 100 µM (inactive) | 18.9 µM (inactive) | > 100 µM (inactive) | 31.7 µM (inactive) | > 100 µM (inactive) | > 100 µM (inactive) | 49.7 µM (inactive) | > 100 µM (inactive) | > 100 µM (inactive) | 36.8 µM (inactive) | > 100 µM (inactive) | > 100 µM (inactive) | – | – |
| COCN(C)c1nc(N(C)C)nc(N(C)C)n1 | > 100 µM (inactive) | > 100 µM (inactive) | – | > 100 µM (inactive) | > 100 | > 100 µM (inactive) | > 100 µM (inactive) | > 100 µM (inactive) | – | > 100 µM (inactive) | > 100 µM (inactive) | > 100 µM (inactive) | > 100 µM (inactive) | > 100 µM (inactive) | > 100 µM (inactive) | > 100 µM (inactive) | > 100 µM (inactive) | > 100 µM (inactive) | > 100 µM (inactive) | – |
| O=C1C(O)=C(Cl)C(=O)c2c(O)ccc(O)c21 | > 100 µM (inactive) | > 100 µM (inactive) | > 100 µM (inactive) | > 100 µM (inactive) | > 100 | > 100 µM (inactive) | > 100 µM (inactive) | – | > 100 µM (inactive) | 10 µM (inactive) | 20.1 µM (inactive) | > 100 µM (inactive) | > 100 µM (inactive) | > 100 µM (inactive) | – | > 100 µM (inactive) | > 100 µM (inactive) | > 100 µM (inactive) | > 100 µM (inactive) | – |
| Cc1c(Br)c(Br)c(C)[s+]1[O-] | 16.9 µM (inactive) | 15.6 µM (inactive) | – | 15.1 µM (inactive) | 12.4 | 15.6 µM (inactive) | 15.4 µM (inactive) | 11.1 µM (inactive) | 22.9 µM (inactive) | 3.48 µM (inactive) | 17.3 µM (inactive) | 25.3 µM (inactive) | 3.8 µM (inactive) | 20 µM (inactive) | 13.3 µM (inactive) | 3.28 µM (inactive) | 21.2 µM (inactive) | 11.6 µM (inactive) | 20.4 µM (inactive) | 9.16 µM (inactive) |
| C/C(CC(O)(/C=N/O)c1ccccc1)=N/O (configuration not stated) | > 100 µM (inactive) | > 100 µM (inactive) | – | > 100 µM (inactive) | > 100 | > 100 µM (inactive) | > 100 µM (inactive) | > 100 µM (inactive) | > 100 µM (inactive) | > 100 µM (inactive) | > 100 µM (inactive) | > 100 µM (inactive) | > 100 µM (inactive) | > 100 µM (inactive) | > 100 µM (inactive) | > 100 µM (inactive) | > 100 µM (inactive) | > 100 µM (inactive) | – | > 100 µM (inactive) |
| CCOC(=O)N[C@@H]1C2CC(=O)C(O2)[C@@H]1OC (some centres not stated) | > 100 µM (inactive) | > 100 µM (inactive) | – | > 100 µM (inactive) | > 100 | > 100 µM (inactive) | > 100 µM (inactive) | > 100 µM (inactive) | – | > 100 µM (inactive) | > 100 µM (inactive) | > 100 µM (inactive) | > 100 µM (inactive) | > 100 µM (inactive) | > 100 µM (inactive) | > 100 µM (inactive) | > 100 µM (inactive) | > 100 µM (inactive) | > 100 µM (inactive) | – |
